The results in this text go back to US12312419B2, “Hemiasterlin derivative having cysteine residue” (priority 2019, dated 2025).

The test system of test [1] is porcine tubulin. Nature of the test: Evaluation of activity for inhibiting microtubule polymerization using porcine tubulins (2). Type of test: biochemical. The note with it: compound 9.1 μM; 60 minutes after assay initiation; relative to wells without compound; lower = stronger inhibition. Here is the method: (§1) Using a tubulin polymerization inhibition assay kit (catalog number: BK006P) purchased from Cytoskeleton Inc., the polymerization inhibitory activity of compounds of Examples with a concentration of 9.1 μM was evaluated in accordance with the protocol appended to the kit. To a 96 well microplate, 80 mM PIPES pH 6.9, 2 mM MgCl, 0.5 mM EGTA and 5% DMSO buffered solution of the compound to be evaluated was added in an amount of 10 μL for each well, and to these wells, 3 mg/mL porcine tubulin 80 mM PIPES pH 6.9, 2 mM MgCl, 0.5 mM EGTA, 1 mM GTP and 10.2% glycerol solution was added in an amount of 100 μL for each well. In order to examine a state in which tubulins polymerize over time, the absorbance at 340 nm was measured at 37° C., using a microplate reader. As the polymerization of tubulins progresses, the absorbance at 340 nm rises.
The tubulin polymerization inhibitory activity was evaluated based on the proportion of polymerized tubulins 60 minutes after the assay initiation. Specifically, the microtubule polymerization rate (%) was calculated by dividing the absorbance of tubulins that had polymerized at wells to which the compound had been added by the absorbance of tubulins that had polymerized at wells to which the compound had not been added, and multiplying the obtained value by 100.

The test system of another test is Karpas-299 cells. Description: Cellular toxicity test (1), CellTiter-Glo cell viability. Type of test: cell-based, human. Conditions: Homo sapiens, 96 h; Karpas-299; cultured 4 days; cell viability. Here is the method:
Karpas-299 cells (European Collection of Authenticated Cell Cultures, hereinafter, ECACC), which are human lymphoma cell lines, were cultured in RPMI 1640 (GIBCO) containing 10% fetal bovine serum (MP Biomedicals) (hereinafter, referred to as the “culture medium”). Cells were prepared to be 2×10^5 cells/mL in the culture medium, and were added to a 96 well microplate for cell culturing in an amount of 50 μL for each well. Compounds of Examples or the Comparative Example compound 4 times diluted with the culture medium in 8 stages were added to the microplate in an amount of 50 μL for each well. These were cultured at 37° C. under 5% CO2 for 4 days. After culturing, the microplate was taken out from the incubator, and was left at rest at room temperature for 10 minutes. To each well, 50 μL of CellTiter-Glo Luminescent Cell Viability Assay (Promega) was added, and the resultant mixture was stirred. This mixture was incubated at a dark place for 20 minutes. Using a microplate luminometer, luminescence at each well was measured, thereby calculating the cell viability. From the value of the cell viability, the IC50 value was calculated.
The IC50 value was calculated by the following formula: IC50(nM)=antilog(LOG10(a/b)×(e−d)/(c−d)+LOG10b) • a: concentration a of test substance • b: concentration b of test substance • c: cell viability upon adding test substance with concentration a • d: cell viability upon adding test substance with concentration b • e: intermediate value between maximum and minimum among cell viabilities upon adding test substances with different concentrations (a and b are concentrations crossing the cell viability e, and a>b is indicated).
The cell viability at each concentration was calculated by the following formula: Cell Viability (%)=a′/b′×100 • a′: mean value of luminescence amount of wells to which test substance was added (n=6) • b′: mean value of luminescence amount of wells to which test substance was not added (n=6) • (n represents the number of evaluations performed per test substance concentration).

In test [2] the test system is porcine tubulin. Nature of the test: Evaluation of activity for inhibiting microtubule polymerization using porcine tubulins (1). Type of test: biochemical. The note with it: compound 9.1 μM; absorbance at 340 nm at 37° C. over time; FIG. 1. Here is the method: as §1, with “In summary of the protocol, to” for “To”, “mg/ml” for “mg/mL”

Each structure is given as a SMILES string.

In general, IC50 refers to the concentration that inhibits the measured activity by half. For `CN[C@H](C(=O)N[C@H](C(=O)N(C)[C@H](/C=C(\C)C(=O)N[C@H](CCC(=O)NCCN1C(=O)CC(SC[C@H](N)C(=O)O)C1=O)C(=O)O)C(C)C)C(C)(C)C)C(C)(C)C1CCCCC1` (stereo partly shown) [Example MM32], the “Microtubule polymerization rate (%)” value in the test with porcine tubulin [1] was found to be 0%. The IC50 in the test with Karpas-299 cells was > 1 µM.
For `CN[C@H](C(=O)N[C@H](C(=O)N(C)[C@H](/C=C(\C)C(=O)N[C@H](CCC(=O)NCCN1C(=O)CC(SC[C@H](N)C(=O)O)C1=O)C(=O)O)C(C)C)C(C)(C)C)C(C)(C)c1cccc(C(F)(F)F)c1` (stereo partly shown) [Example MM30] the same measures were 12% and > 1 µM.
Turning to `CN[C@H](C(=O)N[C@H](C(=O)N(C)[C@H](/C=C(\C)C(=O)N[C@H](CCC(=O)NCCCCN1C(=O)CC(SC[C@H](N)C(=O)O)C1=O)C(=O)O)C(C)C)C(C)(C)C)C(C)(C)c1ccccc1` (stereo partly shown) [Example MM17], the “Microtubule polymerization rate (%)” value with porcine tubulin [1] is 0%. Besides, the IC50 with Karpas-299 cells is 0.85 µM.
As to `CN[C@H](C(=O)N[C@H](C(=O)N(C)[C@H](/C=C(\C)C(=O)N[C@H](CCC(=O)O)C(=O)NCCN1C(=O)CC(SC[C@H](N)C(=O)O)C1=O)C(C)C)C(C)(C)C)C(C)(C)c1ccccc1` (stereo partly shown) [Example MM15], in the test with porcine tubulin [1], the “Microtubule polymerization rate (%)” value was 0%. Also, the IC50 in the test on Karpas-299 cells was > 1 µM.
As for `C/C(=C\[C@H](C(C)C)N(C)C(=O)[C@@H](NC(=O)[C@@H](N)C(C)(C)c1ccccc1)C(C)(C)C)C(=O)N[C@H](CCC(=O)NCCN1C(=O)CC(SC[C@H](N)C(=O)O)C1=O)C(=O)O` (stereo partly shown) [Example MM45], the “Microtubule polymerization rate (%)” value in the test with porcine tubulin [1] is reported as 56%. The IC50 with Karpas-299 cells was > 1 µM.
For `CN[C@H](C(=O)N[C@H](C(=O)N(C)[C@H](/C=C(\C)C(=O)NCCCC[C@@H](NC(=O)CCCN1C(=O)CC(SC[C@H](N)C(=O)O)C1=O)C(=O)O)C(C)C)C(C)(C)C)C(C)(C)c1ccccc1` (stereo partly shown) [Example MM28] the same measures were 0% and > 1 µM.
Taken in the same sequence, the figures for `CN[C@H](C(=O)N[C@H](C(=O)N(C)[C@H](/C=C(\C)C(=O)NCCCCNC(=O)CCCCCN1C(=O)CC(SC[C@H](N)C(=O)O)C1=O)C(C)C)C(C)(C)C)C(C)(C)c1cn(C)c2ccccc12` (stereo partly shown) [Comparative Example compound 2, reference compound] were 0% and 0.03 µM.
For the compound `CN[C@H](C(=O)N[C@H](C(=O)N(C)[C@H](/C=C(\C)C(=O)N[C@H](CCC(=O)NCCN1C(=O)CC(SC[C@H](N)C(=O)O)C1=O)C(=O)O)C(C)C)C(C)(C)C)C(C)(C)c1ccccc1` (stereo partly drawn) [Example MM1, (3S,6S,9S,10E,14R)-14-(3-{[2-(3-{[(2R)-2-Amino-2-carboxyethyl]sulfanyl}-2,5-dioxopyrrolidin-1-yl)ethyl]amino}-3-oxopropyl)-6-tert-butyl-8,11-dimethyl-4,7,12-trioxo-3-(2-phenylpropan-2-yl)-9-(propan-2-yl)-2,5,8,13-tetraazapentadec-10-en-15-oic Acid], the “activity for inhibiting microtubule polymerization” value with porcine tubulin [2] is “exhibited activities for inhibiting microtubule polymerization”. The “Microtubule polymerization rate (%)” value in the test on porcine tubulin [1] is recorded as 9%. In addition, the IC50 in the test with Karpas-299 cells is > 1 µM.
As to `CN[C@H](C(=O)N[C@H](C(=O)N(C)[C@H](/C=C(\C)C(=O)N[C@H](CCC(=O)NCCCN1C(=O)CC(SC[C@H](N)C(=O)O)C1=O)C(=O)O)C(C)C)C(C)(C)C)C(C)(C)c1cn(C)c2ccccc12` (stereo partly shown) [Example MM23], in the test on porcine tubulin [1], the “Microtubule polymerization rate (%)” value amounted to 0%. The compound further displayed an IC50 in the test with Karpas-299 cells of 0.942 µM.
On to `CN[C@H](C(=O)N[C@H](C(=O)N(C)[C@H](/C=C(\C)C(=O)N[C@@H](CCC(=O)NCCN1C(=O)CC(SC[C@H](N)C(=O)O)C1=O)C(=O)O)C(C)C)C(C)(C)C)C(C)(C)c1ccccc1` (stereo partly shown) [Example MM11], for which the “Microtubule polymerization rate (%)” value in the test with porcine tubulin [1] worked out at 0%. Besides, the concentration for half-maximal inhibition (IC50) in the test on Karpas-299 cells is > 1 µM.
Taken in the same sequence, the figures for `C/C(=C\[C@H](C(C)C)N(C)C(=O)[C@@H](NC(=O)[C@@H](N(C)C)C(C)(C)c1ccccc1)C(C)(C)C)C(=O)N[C@H](CCC(=O)NCCN1C(=O)CC(SC[C@H](N)C(=O)O)C1=O)C(=O)O` (stereo partly shown) [Example MM46] were 0% and > 1 µM.
As for `CN[C@H](C(=O)N[C@H](C(=O)N(C)[C@H](/C=C(\C)C(=O)N[C@@H](CCC(=O)NCCN1C(=O)CC(SC[C@H](N)C(=O)O)C1=O)C(=O)O)C(C)C)C(C)(C)C)C(C)(C)c1cn(C)c2ccccc12` (stereo partly shown) [Example MM18], the “Microtubule polymerization rate (%)” value in the test on porcine tubulin [1] is 0%. The compound further yielded an IC50 with Karpas-299 cells of 0.541 µM.
